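Five compound concentrations were applied to cells in 96-well plates for 48 hours; endpoints were derived by simple linear interpolation of the resulting dose-response curve. GI50: concentration for 50% inhibition of growth.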 Calls of active or inactive are those of the source. Cut-off read from the data, not from the text of the source: active = GI50 up to about 1.1 µM and inactive = higher.
Assays:
Assay in all cases: DTP human tumour cell line panel, 48 h
NCI-H522 = system: NCI-H522
SK-MEL-2 = system: SK-MEL-2
SK-MEL-5 = system: SK-MEL-5
K562 = system: K562
KM12 = system: KM12
SK-MEL-28 = system: SK-MEL-28
IGROV-1 = system: IGROV-1
NCI-H460 = system: NCI-H460
BT-549 = system: BT-549
OVCAR-5 = system: OVCAR-5
MDA-MB-435 = system: MDA-MB-435
SK-OV-3 = system: SK-OV-3
T47D = system: T47D
UO-31 = system: UO-31
OVCAR-3 = system: OVCAR-3
UACC-62 = system: UACC-62
HT-29 = system: HT-29
U-251 = system: U-251
HOP-62 = system: HOP-62
HOP-92 = system: HOP-92

Compound | GI50 (NCI-H522) | GI50 (SK-MEL-2) | GI50 (SK-MEL-5) | GI50 (K562) | GI50 (KM12) | GI50 (SK-MEL-28) | GI50 (IGROV-1) | GI50 (NCI-H460) | GI50 (BT-549) | GI50 (OVCAR-5) | GI50 (MDA-MB-435) | GI50 (SK-OV-3) | GI50 (T47D) | GI50 (UO-31) | GI50 (OVCAR-3) | GI50 (UACC-62) | GI50 (HT-29) | GI50 (U-251) | GI50 (HOP-62) | GI50 (HOP-92)
COc1cc2c(cc1O)CCN(C)[C@H]2Cc1ccc(Oc2c(O)c(OC)cc3c2C[C@H]2c4c(c(OC)c(OC)c(OC)c4-3)CCN2C)cc1 [THALIFABERIDINE] | 5.55 µM (inactive) | 6.82 µM (inactive) | 2.9 µM (inactive) | 0.966 µM (active) | 4.11 µM (inactive) | 6.56 µM (inactive) | 5.43 µM (inactive) | 2.09 µM (inactive) | 5.75 µM (inactive) | 7.5 µM (inactive) | 3.51 µM (inactive) | 5.42 µM (inactive) | 6.05 µM (inactive) | 4.98 µM (inactive) | 5.36 µM (inactive) | 3.97 µM (inactive) | 2.85 µM (inactive) | 4.38 µM (inactive) | 6.01 µM (inactive) | 1.69 µM (inactive)
COc1ccccc1-n1nnc2c(N)nc(N)nc21 | > 100 µM (inactive) | > 100 µM (inactive) | > 100 µM (inactive) | > 100 µM (inactive) | > 100 µM (inactive) | > 100 µM (inactive) | > 100 µM (inactive) | > 100 µM (inactive) | > 100 µM (inactive) | > 100 µM (inactive) | > 100 µM (inactive) | > 100 µM (inactive) | > 100 µM (inactive) | > 100 µM (inactive) | > 100 µM (inactive) | > 100 µM (inactive) | > 100 µM (inactive) | > 100 µM (inactive) | > 100 µM (inactive) | > 100 µM (inactive)
Nc1nc(Cl)cc(NC23CC4CC(CC(C4)C2)C3)n1 | 31 µM (inactive) | 19.4 µM (inactive) | – | > 100 µM (inactive) | > 100 µM (inactive) | > 100 µM (inactive) | 57.3 µM (inactive) | > 100 µM (inactive) | 61.7 µM (inactive) | > 100 µM (inactive) | > 100 µM (inactive) | > 100 µM (inactive) | > 100 µM (inactive) | > 100 µM (inactive) | > 100 µM (inactive) | > 100 µM (inactive) | – | 32 µM (inactive) | > 100 µM (inactive) | > 100 µM (inactive)
C=C(CO)C(=O)OC1CC(=C)C2CC(O)C(C)C2C2OC(=O)C(=C)C12 (configuration not stated) | 26.3 µM (inactive) | 16.1 µM (inactive) | 24.3 µM (inactive) | 31.3 µM (inactive) | 18 µM (inactive) | 24.3 µM (inactive) | 18.9 µM (inactive) | 35.8 µM (inactive) | 14.9 µM (inactive) | 30.9 µM (inactive) | 21.2 µM (inactive) | 30.4 µM (inactive) | 49.4 µM (inactive) | 16.2 µM (inactive) | 16 µM (inactive) | 16.6 µM (inactive) | 24.7 µM (inactive) | 26.7 µM (inactive) | 19.4 µM (inactive) | 32.4 µM (inactive)
COc1cc2c3c4c1OCc1c5c(cc(c1-4)CC3[N+](C)(C)CC2)OCO5 (configuration not stated) | 27.1 µM (inactive) | > 100 µM (inactive) | > 100 µM (inactive) | > 86.9 µM (inactive) | > 100 µM (inactive) | > 100 µM (inactive) | > 100 µM (inactive) | > 100 µM (inactive) | 2.83 µM (inactive) | > 100 µM (inactive) | > 100 µM (inactive) | > 100 µM (inactive) | > 100 µM (inactive) | > 100 µM (inactive) | > 89.9 µM (inactive) | > 100 µM (inactive) | > 100 µM (inactive) | 4.9 µM (inactive) | 31.1 µM (inactive) | > 100 µM (inactive)
CC1CNC(c2ccc3c(c2)Cc2cc(C4=NC(C)CN4)ccc2-3)=N1 (configuration not stated) | 22.2 µM (inactive) | 23.2 µM (inactive) | 71.8 µM (inactive) | 34.4 µM (inactive) | 20.3 µM (inactive) | 87.1 µM (inactive) | > 100 µM (inactive) | 26.6 µM (inactive) | > 100 µM (inactive) | > 100 µM (inactive) | 25.8 µM (inactive) | 37.9 µM (inactive) | 35.6 µM (inactive) | > 100 µM (inactive) | 20.8 µM (inactive) | 28.6 µM (inactive) | 61.2 µM (inactive) | 19.4 µM (inactive) | 41 µM (inactive) | > 100 µM (inactive)
COc1ccc(N2C(=O)/C(=C\c3cc(OC)c(OC)c(OC)c3)SC2c2ccccc2)cc1 (configuration not stated) | 16.6 µM (inactive) | > 100 µM (inactive) | 23.7 µM (inactive) | 38.3 µM (inactive) | 51.6 µM (inactive) | > 100 µM (inactive) | – | 67 µM (inactive) | 26.1 µM (inactive) | > 100 µM (inactive) | 27.4 µM (inactive) | 81.7 µM (inactive) | 42.6 µM (inactive) | 46.7 µM (inactive) | > 100 µM (inactive) | 58.9 µM (inactive) | > 100 µM (inactive) | 56.5 µM (inactive) | > 100 µM (inactive) | > 100 µM (inactive)
